Experimental data as given in patent US20260315464A1, “COMPOSITIONS, METHODS, AND SYSTEMS FOR MODULATING SPLICING OF MSH3” (REVIR THERAPEUTICS, INC., priority 2023, published 2026).

Tested on: MSH3
Experiment: QPCR assay for levels of MSH3 upon compound treatment in HEK293T or AD293 cells (fold-change of MSH3 transcript, EC50 of MSH3 downregulation; total MSH3 exons 13/14, exons 20/21; Table 8)
Type: cell-based
Details: for mrna remaining at 1 µM / mrna remaining at 10 µM: Homo sapiens, fold-change of the MSH3 transcript, normalized to GAPDH; for mrna remaining at 1 µM: 1 μM compound; for mrna remaining at 10 µM: 10 μM compound; for EC50: EC50 of MSH3 downregulation, XtalPi
Experimental: HEK293T or AD293 cells were treated with Compound 274 at 1 μM and […]. RNA, cDNA and qPCR was prepared using TaqMan Cells-to-CT Express kit (ThermoFisher Scientific). Taqman assays (ThermoFisher Scientific) were used for quantification of total MSH3 exons 13/14 (cat #4351372, ID #: Hs00988993_ml), total MSH3 exons 20/21 (cat #4351372, ID #: Hs00989000_ml), exon 13/PE14A (Fwd: 5′-[…]; Rev: 5′-[…]; Probe: 5′-[…]) and exon 20/PE21A (Fwd: 5′-[…]; Rev: 5′-[…]; Probe: 5′-[…]) mRNA expression. Taqman GAPDH (cat #4448489, ID #: Hs02758991_g1) was used as a reference for data normalization.

| EC50 | Compound | mrna remaining at 1 µM | mrna remaining at 10 µM |
| --- | --- | --- | --- |
|  | Cn1cc(-c2cc3c(cn2)CN(c2ccc(O[C@H]4C[C@]5(C)CC[C@](C)(C4)N5)nn2)C3=O)c(F)n1 [Compound 107, 2-(6-(((1R,3s,5S)-1,5-dimethyl-8-azabicyclo[3.2.1]octan-3-yl)oxy)pyridazin-3-yl)-6-(3-fluoro-1-methyl-1H-pyrazol-4-yl)-2,3-dihydro-1H-pyrrolo[3,4-c]pyridin-1-one] | 97% | 75% |
|  | Cc1nn(C)cc1-c1cnc2c(c1)C(=O)N(c1ccc(OC3CC(C)(C)NC(C)(C)C3)nn1)C2 [Compound 141, 3-(1,3-dimethyl-1H-pyrazol-4-yl)-6-(6-((2,2,6,6-tetramethylpiperidin-4-yl)oxy)pyridazin-3-yl)-6,7-dihydro-5H-pyrrolo[3,4-b]pyridin-5-one] | 67% | 6% |
|  | CN(c1ccc(N2Cc3ncc(-c4cnn(C)c4)cc3C2=O)nn1)C1CC(C)(C)NC(C)(C)C1 [Compound 148, 6-(6-(methyl(2,2,6,6-tetramethylpiperidin-4-yl)amino)pyridazin-3-yl)-3-(1-methyl-1H-pyrazol-4-yl)-6,7-dihydro-5H-pyrrolo[3,4-b]pyridin-5-one] | 103% | 40% |
|  | Cc1nc(C)c(-c2cnc3c(c2)C(=O)N(c2ccc(OC4CC(C)(C)NC(C)(C)C4)nn2)C3)s1 [Compound 150, 3-(2,4-dimethylthiazol-5-yl)-6-(6-((2,2,6,6-tetramethylpiperidin-4-yl)oxy)pyridazin-3-yl)-6,7-dihydro-5H-pyrrolo[3,4-b]pyridin-5-one] | 116% | 77% |
|  | Cc1nn(C)cc1-c1cnc2c(c1)C(=O)N(c1ccc(N(C)C3CC(C)(C)NC(C)(C)C3)nn1)C2 [Compound 156, 3-(1,3-dimethyl-1H-pyrazol-4-yl)-6-(6-(methyl(2,2,6,6-tetramethylpiperidin-4-yl)amino)pyridazin-3-yl)-6,7-dihydro-5H-pyrrolo[3,4-b]pyridin-5-one] | 81% | 19% |
|  | [2H]C([2H])([2H])n1cc(-c2cnc3c(c2)C(=O)N(c2ccc(N(C)C4CC(C)(C)NC(C)(C)C4)nn2)C3)cn1 [Compound 161, 6-(6-(methyl(2,2,6,6-tetramethylpiperidin-4-yl)amino)pyridazin-3-yl)-3-(1-(methyl-d3)-1H-pyrazol-4-yl)-6,7-dihydro-5H-pyrrolo[3,4-b]pyridin-5-one] | 96% | 70% |
|  | Cc1nc(C)c(-c2cnc3c(c2)C(=O)N(c2ccc(N(C)C4CC(C)(C)NC(C)(C)C4)nn2)C3)s1 [Compound 167, 3-(2,4-dimethylthiazol-5-yl)-6-(6-(methyl(2,2,6,6-tetramethylpiperidin-4-yl)amino)pyridazin-3-yl)-6,7-dihydro-5H-pyrrolo[3,4-b]pyridin-5-one] | 47% | 11% |
|  | Cc1nc(C)c(-c2cnc3c(c2)C(=O)N(c2ccc(O[C@H]4C[C@]5(C)CC[C@](C)(C4)N5)nn2)C3)s1 [Compound 174, 6-(6-(((1R,3s,5S)-1,5-dimethyl-8-azabicyclo[3.2.1]octan-3-yl)oxy)pyridazin-3-yl)-3-(2,4-dimethylthiazol-5-yl)-6,7-dihydro-5H-pyrrolo[3,4-b]pyridin-5-one] | 103% | 62% |
|  | Cc1nn(C)cc1-c1cnc2c(c1)C(=O)N(c1cnc(N(C)[C@H]3C[C@]4(C)CC[C@](C)(C3)N4)nn1)C2 [Compound 175, 3-(1,3-dimethyl-1H-pyrazol-4-yl)-6-(3-(((1R,3s,5S)-1,5-dimethyl-8-azabicyclo[3.2.1]octan-3-yl)(methyl)amino)-1,2,4-triazin-6-yl)-6,7-dihydro-5H-pyrrolo[3,4-b]pyridin-5-one] | 93% | 70% |
|  | Cn1cc(-c2cnc3c(c2)C(=O)N(c2ccc(OC4CC(C)(C)NC(C)(C)C4)nn2)C3)c(C(F)(F)F)n1 [Compound 176, 3-(1-methyl-3-(trifluoromethyl)-1H-pyrazol-4-yl)-6-(6-((2,2,6,6-tetramethylpiperidin-4-yl)oxy)pyridazin-3-yl)-6,7-dihydro-5H-pyrrolo[3,4-b]pyridin-5-one] | 94% | 110% |
| 425 nM | Cc1nn(C)nc1-c1cnc2c(c1)C(=O)N(c1ccc(N(C)[C@H]3C[C@]4(C)CC[C@](C)(C3)N4)nn1)C2 [Compound 178, 3-(2,5-dimethyl-2H-1,2,3-triazol-4-yl)-6-(6-(((1R,3s,5S)-1,5-dimethyl-8-azabicyclo[3.2.1]octan-3-yl)(methyl)amino)pyridazin-3-yl)-6,7-dihydro-5H-pyrrolo[3,4-b]pyridin-5-one] | 10% | 5% |
|  | Cc1nn(C)nc1-c1cnc2c(c1)C(=O)N(c1ccc(OC3CC(C)(C)NC(C)(C)C3)nn1)C2 [Compound 179, 3-(2,5-dimethyl-2H-1,2,3-triazol-4-yl)-6-(6-((2,2,6,6-tetramethylpiperidin-4-yl)oxy)pyridazin-3-yl)-6,7-dihydro-5H-pyrrolo[3,4-b]pyridin-5-one] | 93% | 8% |
| 1120 nM | Cc1nn(C)nc1-c1cnc2c(c1)C(=O)N(c1ccc(N(C)C3CC(C)(C)NC(C)(C)C3)nn1)C2 [Compound 180, 3-(2,5-dimethyl-2H-1,2,3-triazol-4-yl)-6-(6-(methyl(2,2,6,6-tetramethylpiperidin-4-yl)amino)pyridazin-3-yl)-6,7-dihydro-5H-pyrrolo[3,4-b]pyridin-5-one] | 50% | 8% |
|  | Cc1nn(C)cc1-c1cnc2c(c1)C(=O)N(c1ccc(O[C@H]3C[C@@]4(C)CC[C@](C)(N4)[C@H]3F)nn1)C2 [Compound 181, 3-(1,3-dimethyl-1H-pyrazol-4-yl)-6-(6-(((1S,2R,3S,5R)-2-fluoro-1,5-dimethyl-8-azabicyclo[3.2.1]octan-3-yl)oxy)pyridazin-3-yl)-6,7-dihydro-5H-pyrrolo[3,4-b]pyridin-5-one] | 92% | 103% |
|  | CN(c1ccc(N2Cc3ncc(-c4cn(C)nc4C(F)(F)F)cc3C2=O)nn1)[C@H]1C[C@]2(C)CC[C@](C)(C1)N2 [Compound 183, 6-(6-(((1R,3s,5S)-1,5-dimethyl-8-azabicyclo[3.2.1]octan-3-yl)(methyl)amino)pyridazin-3-yl)-3-(1-methyl-3-(trifluoromethyl)-1H-pyrazol-4-yl)-6,7-dihydro-5H-pyrrolo[3,4-b]pyridin-5-one] | 99% | 28% |
|  | CN(c1ccc(N2Cc3ncc(-c4cn(C)nc4F)cc3C2=O)nn1)C1CC(C)(C)NC(C)(C)C1 [Compound 187, 3-(3-fluoro-1-methyl-1H-pyrazol-4-yl)-6-(6-(methyl(2,2,6,6-tetramethylpiperidin-4-yl)amino)pyridazin-3-yl)-6,7-dihydro-5H-pyrrolo[3,4-b]pyridin-5-one] | 92% | 25% |
| 960 nM | CN(c1ccc(N2Cc3ncc(-c4cnn(C)n4)cc3C2=O)nn1)[C@H]1C[C@]2(C)CC[C@](C)(C1)N2 [Compound 188, 6-(6-(((1R,3s,5S)-1,5-dimethyl-8-azabicyclo[3.2.1]octan-3-yl)(methyl)amino)pyridazin-3-yl)-3-(2-methyl-2H-1,2,3-triazol-4-yl)-6,7-dihydro-5H-pyrrolo[3,4-b]pyridin-5-one] | 18% | 5% |
|  | CN(c1ccc(N2Cc3ncc(-c4cnn(C)n4)cc3C2=O)nn1)C1CC(C)(C)NC(C)(C)C1 [Compound 189, 6-(6-(methyl(2,2,6,6-tetramethylpiperidin-4-yl)amino)pyridazin-3-yl)-3-(2-methyl-2H-1,2,3-triazol-4-yl)-6,7-dihydro-5H-pyrrolo[3,4-b]pyridin-5-one] | 73% | 23% |
|  | Cn1cc(-c2cnc3c(c2)C(=O)N(c2ccc(OC4CC(C)(C)NC(C)(C)C4)nn2)C3)c(F)n1 [Compound 190, 3-(3-fluoro-1-methyl-1H-pyrazol-4-yl)-6-(6-((2,2,6,6-tetramethylpiperidin-4-yl)oxy)pyridazin-3-yl)-6,7-dihydro-5H-pyrrolo[3,4-b]pyridin-5-one] | 106% | 45% |
|  | Cn1ncc(-c2cnc3c(c2)C(=O)N(c2ccc(OC4CC(C)(C)NC(C)(C)C4)nn2)C3)n1 [Compound 191, 3-(2-methyl-2H-1,2,3-triazol-4-yl)-6-(6-((2,2,6,6-tetramethylpiperidin-4-yl)oxy)pyridazin-3-yl)-6,7-dihydro-5H-pyrrolo[3,4-b]pyridin-5-one] | 45% | 17% |
|  | Cc1nc(C)c(-c2cnc3c(c2)C(=O)N(c2ccc(O[C@@H]4C[C@]5(C)CC[C@](C)(C4)N5)nn2)C3)s1 [Compound 194, 6-(6-(((1R,3r,5S)-1,5-dimethyl-8-azabicyclo[3.2.1]octan-3-yl)oxy)pyridazin-3-yl)-3-(2,4-dimethylthiazol-5-yl)-6,7-dihydro-5H-pyrrolo[3,4-b]pyridin-5-one] | 224% | 92% |
|  | Cc1nc(C)c(-c2cnc3c(c2)C(=O)N(c2cnc(N(C)C4CC(C)(C)NC(C)(C)C4)nn2)C3)s1 [Compound 195, 3-(2,4-dimethylthiazol-5-yl)-6-(3-(methyl(2,2,6,6-tetramethylpiperidin-4-yl)amino)-1,2,4-triazin-6-yl)-6,7-dihydro-5H-pyrrolo[3,4-b]pyridin-5-one] | 59% | 42% |
